Consider six molecules from ChEMBL document CHEMBL1145498, “A systematic interaction map of validated kinase inhibitors with Ser/Thr kinases” (Proc Natl Acad Sci U S A, 2007).

In assay [1] the target is Calcium/calmodulin-dependent protein kinase type 1D (Homo sapiens) (UniProt Q8IU85).
Assay [2] has as its target Calcium/calmodulin-dependent protein kinase type II subunit gamma (Homo sapiens) (UniProt Q13555).
The target in assay [3] is T1, Calcium/calmodulin-dependent protein kinase type IV (Homo sapiens) (UniProt Q16566).
T1 sequence (whole entry): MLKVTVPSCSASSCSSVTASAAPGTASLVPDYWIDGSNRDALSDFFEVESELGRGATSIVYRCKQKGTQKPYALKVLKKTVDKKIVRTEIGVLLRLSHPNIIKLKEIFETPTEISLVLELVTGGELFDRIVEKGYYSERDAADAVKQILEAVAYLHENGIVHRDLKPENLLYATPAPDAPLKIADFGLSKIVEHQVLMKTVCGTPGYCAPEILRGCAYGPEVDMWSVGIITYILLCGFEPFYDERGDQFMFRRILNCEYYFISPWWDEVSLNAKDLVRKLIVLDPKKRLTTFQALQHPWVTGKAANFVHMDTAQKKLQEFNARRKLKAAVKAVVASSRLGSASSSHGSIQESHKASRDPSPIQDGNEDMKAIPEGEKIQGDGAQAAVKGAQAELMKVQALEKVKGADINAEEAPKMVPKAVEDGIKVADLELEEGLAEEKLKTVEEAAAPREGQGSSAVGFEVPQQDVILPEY

Assay [4] addresses Cyclin-dependent kinase 2 (Homo sapiens, UniProt P24941).
The target of assay [5] is Serine/threonine-protein kinase Chk2 (Homo sapiens, UniProt O96017).
Chain of Serine/threonine-protein kinase Chk2 (O96017 whole entry): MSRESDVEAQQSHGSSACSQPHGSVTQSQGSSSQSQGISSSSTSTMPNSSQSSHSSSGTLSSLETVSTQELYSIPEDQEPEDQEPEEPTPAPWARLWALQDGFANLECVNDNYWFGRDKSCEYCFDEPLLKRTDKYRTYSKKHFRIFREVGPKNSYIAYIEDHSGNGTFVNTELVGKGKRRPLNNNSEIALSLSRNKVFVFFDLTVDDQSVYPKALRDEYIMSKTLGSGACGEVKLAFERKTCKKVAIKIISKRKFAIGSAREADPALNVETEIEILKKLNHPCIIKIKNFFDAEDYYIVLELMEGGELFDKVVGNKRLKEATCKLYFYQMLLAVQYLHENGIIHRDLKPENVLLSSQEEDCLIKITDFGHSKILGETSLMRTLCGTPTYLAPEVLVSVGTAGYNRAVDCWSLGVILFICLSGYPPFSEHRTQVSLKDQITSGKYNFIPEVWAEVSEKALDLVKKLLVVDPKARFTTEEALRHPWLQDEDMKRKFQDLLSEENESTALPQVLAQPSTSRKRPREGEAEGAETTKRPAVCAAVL
Assay [6] concerns the target Dual specificity mitogen-activated protein kinase kinase 2 (Homo sapiens, UniProt P36507).
The target in assay [7] is Mitogen-activated protein kinase 11 (Homo sapiens, UniProt Q15759).
Chain of Mitogen-activated protein kinase 11 (Q15759 whole entry): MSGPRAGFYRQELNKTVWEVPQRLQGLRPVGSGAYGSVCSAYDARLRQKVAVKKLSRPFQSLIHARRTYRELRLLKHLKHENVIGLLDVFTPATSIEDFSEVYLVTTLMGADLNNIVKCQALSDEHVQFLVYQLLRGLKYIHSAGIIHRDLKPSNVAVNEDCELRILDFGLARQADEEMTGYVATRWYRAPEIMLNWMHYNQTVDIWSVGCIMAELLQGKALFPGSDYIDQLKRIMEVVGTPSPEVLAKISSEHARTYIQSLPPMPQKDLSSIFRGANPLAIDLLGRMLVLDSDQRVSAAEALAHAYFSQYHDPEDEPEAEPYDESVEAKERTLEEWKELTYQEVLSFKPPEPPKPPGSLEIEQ
Assay [8] deals with Mitogen-activated protein kinase 3 (Homo sapiens, UniProt P27361).
Chain of Mitogen-activated protein kinase 3 (P27361 whole entry): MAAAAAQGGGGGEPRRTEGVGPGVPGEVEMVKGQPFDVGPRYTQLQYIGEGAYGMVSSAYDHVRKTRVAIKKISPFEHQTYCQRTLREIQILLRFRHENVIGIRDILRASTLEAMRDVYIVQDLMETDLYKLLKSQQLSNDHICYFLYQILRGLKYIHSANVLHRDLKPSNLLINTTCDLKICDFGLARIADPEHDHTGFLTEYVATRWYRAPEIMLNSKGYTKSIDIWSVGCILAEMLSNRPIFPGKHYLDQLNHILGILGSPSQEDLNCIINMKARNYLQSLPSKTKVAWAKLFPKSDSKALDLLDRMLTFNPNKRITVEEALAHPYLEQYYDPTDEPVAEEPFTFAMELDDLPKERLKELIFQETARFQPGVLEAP
The target of assay [9] is T2, Serine/threonine-protein kinase Nek2 (Homo sapiens) (UniProt P51955).
T2 sequence (whole entry): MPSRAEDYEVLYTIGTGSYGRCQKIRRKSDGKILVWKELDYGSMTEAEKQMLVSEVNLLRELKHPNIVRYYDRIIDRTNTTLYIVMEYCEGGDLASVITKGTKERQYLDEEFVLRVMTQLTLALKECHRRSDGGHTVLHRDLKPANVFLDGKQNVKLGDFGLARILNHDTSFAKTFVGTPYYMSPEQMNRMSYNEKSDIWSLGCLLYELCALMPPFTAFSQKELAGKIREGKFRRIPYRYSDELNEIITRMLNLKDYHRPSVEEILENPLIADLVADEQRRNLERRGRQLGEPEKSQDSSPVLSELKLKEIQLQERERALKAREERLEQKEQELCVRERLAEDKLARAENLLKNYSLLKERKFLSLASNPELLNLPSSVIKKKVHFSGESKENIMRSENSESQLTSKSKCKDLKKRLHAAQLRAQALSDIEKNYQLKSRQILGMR

Assay [10] concerns the target Serine/threonine-protein kinase PAK 6 (Homo sapiens) (UniProt Q9NQU5).
In assay [11] the target is Serine/threonine-protein kinase pim-1 (Homo sapiens) (UniProt P11309).
Chain of Serine/threonine-protein kinase pim-1 (Homo sapiens) (P11309 whole entry, looked up): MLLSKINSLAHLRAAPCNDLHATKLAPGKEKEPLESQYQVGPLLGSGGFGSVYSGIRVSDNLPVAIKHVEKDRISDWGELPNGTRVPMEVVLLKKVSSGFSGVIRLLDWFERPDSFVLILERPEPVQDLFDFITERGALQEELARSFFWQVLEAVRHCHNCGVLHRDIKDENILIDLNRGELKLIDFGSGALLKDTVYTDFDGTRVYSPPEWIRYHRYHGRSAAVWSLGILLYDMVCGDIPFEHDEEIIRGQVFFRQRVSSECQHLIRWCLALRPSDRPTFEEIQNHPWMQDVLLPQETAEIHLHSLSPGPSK
Assay [12] has as its target Serine/threonine-protein kinase pim-2 (Homo sapiens, UniProt Q9P1W9).
The target in assay [13] is Serine/threonine-protein kinase RIO2 (Homo sapiens) (UniProt Q9BVS4).
Chain of Serine/threonine-protein kinase RIO2 (Homo sapiens) (Q9BVS4 whole entry, looked up): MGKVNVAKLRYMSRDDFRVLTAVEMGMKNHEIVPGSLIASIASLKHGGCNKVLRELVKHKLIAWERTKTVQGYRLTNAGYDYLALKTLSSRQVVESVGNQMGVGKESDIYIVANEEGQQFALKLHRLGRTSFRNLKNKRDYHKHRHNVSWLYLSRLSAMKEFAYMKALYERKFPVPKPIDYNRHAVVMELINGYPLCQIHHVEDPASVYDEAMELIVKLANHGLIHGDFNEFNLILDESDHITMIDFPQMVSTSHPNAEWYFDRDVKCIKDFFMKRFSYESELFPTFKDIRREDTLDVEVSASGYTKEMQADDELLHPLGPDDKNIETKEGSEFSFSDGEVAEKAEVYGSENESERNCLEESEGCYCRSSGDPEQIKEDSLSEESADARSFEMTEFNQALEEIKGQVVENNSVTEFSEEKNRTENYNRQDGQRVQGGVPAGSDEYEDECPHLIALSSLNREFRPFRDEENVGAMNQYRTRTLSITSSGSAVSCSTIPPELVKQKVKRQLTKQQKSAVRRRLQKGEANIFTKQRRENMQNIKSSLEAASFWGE
Assay [14] addresses STE20-like serine/threonine-protein kinase (Homo sapiens) (UniProt Q9H2G2).
The target in assay [15] is Serine/threonine-protein kinase 10 (Homo sapiens) (UniProt O94804).
For assay [16], the target named is Serine/threonine-protein kinase 38 (Homo sapiens) (UniProt Q15208).
Chain of Serine/threonine-protein kinase 38 (Homo sapiens) (Q15208 2-465 limits assumed): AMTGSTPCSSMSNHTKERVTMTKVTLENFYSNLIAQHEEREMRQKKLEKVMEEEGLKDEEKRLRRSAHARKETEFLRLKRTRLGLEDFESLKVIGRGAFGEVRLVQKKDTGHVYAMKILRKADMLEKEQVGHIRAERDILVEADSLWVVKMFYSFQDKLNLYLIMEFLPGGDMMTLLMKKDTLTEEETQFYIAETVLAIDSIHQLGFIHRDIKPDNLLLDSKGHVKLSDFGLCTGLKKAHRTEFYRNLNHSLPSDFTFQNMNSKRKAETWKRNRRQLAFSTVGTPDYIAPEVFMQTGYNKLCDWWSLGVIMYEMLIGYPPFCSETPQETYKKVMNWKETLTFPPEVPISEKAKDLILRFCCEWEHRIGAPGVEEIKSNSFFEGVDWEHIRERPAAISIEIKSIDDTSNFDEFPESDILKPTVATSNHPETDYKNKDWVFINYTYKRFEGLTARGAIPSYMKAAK
Assay [17] concerns the target Serine/threonine-protein kinase 26 (Homo sapiens) (UniProt Q9P289).
Assay [18] has as its target T3, Serine/threonine-protein kinase 4 (Homo sapiens) (UniProt Q13043).
T3 sequence (whole entry): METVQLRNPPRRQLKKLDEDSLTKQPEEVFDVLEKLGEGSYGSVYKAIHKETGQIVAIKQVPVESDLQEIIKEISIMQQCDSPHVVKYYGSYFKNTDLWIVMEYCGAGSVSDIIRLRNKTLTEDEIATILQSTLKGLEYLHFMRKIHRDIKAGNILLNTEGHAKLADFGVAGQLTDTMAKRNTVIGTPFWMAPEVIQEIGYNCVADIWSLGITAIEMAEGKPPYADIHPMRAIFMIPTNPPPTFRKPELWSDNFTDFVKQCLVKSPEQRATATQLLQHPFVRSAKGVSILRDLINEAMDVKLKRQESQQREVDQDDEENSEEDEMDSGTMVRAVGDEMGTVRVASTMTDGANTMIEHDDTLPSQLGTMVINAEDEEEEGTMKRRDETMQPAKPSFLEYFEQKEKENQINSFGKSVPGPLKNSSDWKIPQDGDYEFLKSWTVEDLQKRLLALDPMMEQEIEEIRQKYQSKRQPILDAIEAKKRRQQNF

For assay [19], the target named is TRAF2 and NCK-interacting protein kinase (Homo sapiens) (UniProt Q9UKE5).
For assay [20], the target named is T4, Serine/threonine-protein kinase VRK3 (Homo sapiens) (UniProt Q8IV63).
T4 sequence (whole entry): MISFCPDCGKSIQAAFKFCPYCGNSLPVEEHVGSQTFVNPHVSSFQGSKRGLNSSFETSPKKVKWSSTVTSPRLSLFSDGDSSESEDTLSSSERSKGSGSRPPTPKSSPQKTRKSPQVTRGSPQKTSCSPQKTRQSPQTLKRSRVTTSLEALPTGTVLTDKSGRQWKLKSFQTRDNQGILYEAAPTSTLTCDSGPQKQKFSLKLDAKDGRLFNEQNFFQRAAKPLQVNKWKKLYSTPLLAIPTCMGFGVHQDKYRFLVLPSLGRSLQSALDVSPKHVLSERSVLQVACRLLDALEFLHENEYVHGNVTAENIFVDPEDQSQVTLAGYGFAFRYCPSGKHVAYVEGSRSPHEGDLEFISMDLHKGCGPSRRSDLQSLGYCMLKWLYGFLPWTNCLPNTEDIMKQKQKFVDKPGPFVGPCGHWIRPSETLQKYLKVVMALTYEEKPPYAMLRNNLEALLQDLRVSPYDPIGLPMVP

Chain of STE20-like serine/threonine-protein kinase (Homo sapiens) (Q9H2G2 whole entry, looked up): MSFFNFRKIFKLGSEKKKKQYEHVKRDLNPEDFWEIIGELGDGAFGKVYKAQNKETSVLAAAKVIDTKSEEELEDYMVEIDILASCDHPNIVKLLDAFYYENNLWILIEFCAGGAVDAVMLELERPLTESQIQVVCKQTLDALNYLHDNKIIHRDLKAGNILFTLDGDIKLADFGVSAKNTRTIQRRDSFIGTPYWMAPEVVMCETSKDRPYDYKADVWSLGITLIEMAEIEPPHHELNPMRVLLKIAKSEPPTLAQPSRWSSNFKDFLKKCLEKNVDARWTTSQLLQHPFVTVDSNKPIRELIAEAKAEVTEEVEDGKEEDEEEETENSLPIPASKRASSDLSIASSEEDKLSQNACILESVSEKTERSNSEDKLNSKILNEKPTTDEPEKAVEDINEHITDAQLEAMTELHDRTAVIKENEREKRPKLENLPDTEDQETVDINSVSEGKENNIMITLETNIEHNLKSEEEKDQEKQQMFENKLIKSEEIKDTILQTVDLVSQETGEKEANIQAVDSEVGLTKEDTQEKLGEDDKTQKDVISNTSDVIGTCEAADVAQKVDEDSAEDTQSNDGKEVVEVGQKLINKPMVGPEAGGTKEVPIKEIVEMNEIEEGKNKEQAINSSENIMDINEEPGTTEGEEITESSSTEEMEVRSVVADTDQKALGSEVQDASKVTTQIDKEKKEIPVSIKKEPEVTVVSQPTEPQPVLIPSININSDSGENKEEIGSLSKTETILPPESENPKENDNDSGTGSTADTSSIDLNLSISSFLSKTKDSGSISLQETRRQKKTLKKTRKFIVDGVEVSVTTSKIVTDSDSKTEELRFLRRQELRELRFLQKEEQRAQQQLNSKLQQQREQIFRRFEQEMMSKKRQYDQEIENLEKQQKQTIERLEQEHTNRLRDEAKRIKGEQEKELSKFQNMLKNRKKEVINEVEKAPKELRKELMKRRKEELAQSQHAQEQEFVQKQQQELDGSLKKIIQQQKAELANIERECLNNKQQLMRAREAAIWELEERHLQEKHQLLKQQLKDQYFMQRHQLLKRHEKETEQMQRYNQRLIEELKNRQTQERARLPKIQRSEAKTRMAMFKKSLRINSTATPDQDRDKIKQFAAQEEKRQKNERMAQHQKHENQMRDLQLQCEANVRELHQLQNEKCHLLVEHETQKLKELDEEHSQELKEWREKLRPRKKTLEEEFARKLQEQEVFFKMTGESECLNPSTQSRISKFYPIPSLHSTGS
Chain of Dual specificity mitogen-activated protein kinase kinase 2 (P36507 whole entry): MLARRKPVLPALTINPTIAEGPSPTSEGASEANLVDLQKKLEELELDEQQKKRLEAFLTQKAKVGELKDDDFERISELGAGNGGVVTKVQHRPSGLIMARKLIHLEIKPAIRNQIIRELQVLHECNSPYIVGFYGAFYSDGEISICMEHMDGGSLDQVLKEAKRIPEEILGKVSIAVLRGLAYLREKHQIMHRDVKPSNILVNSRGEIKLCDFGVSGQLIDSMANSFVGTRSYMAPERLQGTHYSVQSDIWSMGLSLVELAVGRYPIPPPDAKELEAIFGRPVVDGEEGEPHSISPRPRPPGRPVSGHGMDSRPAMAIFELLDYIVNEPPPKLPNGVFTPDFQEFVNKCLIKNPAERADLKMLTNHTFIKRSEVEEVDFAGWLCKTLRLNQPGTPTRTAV
Chain of Serine/threonine-protein kinase 26 (Homo sapiens) (Q9P289 2-416 limits assumed): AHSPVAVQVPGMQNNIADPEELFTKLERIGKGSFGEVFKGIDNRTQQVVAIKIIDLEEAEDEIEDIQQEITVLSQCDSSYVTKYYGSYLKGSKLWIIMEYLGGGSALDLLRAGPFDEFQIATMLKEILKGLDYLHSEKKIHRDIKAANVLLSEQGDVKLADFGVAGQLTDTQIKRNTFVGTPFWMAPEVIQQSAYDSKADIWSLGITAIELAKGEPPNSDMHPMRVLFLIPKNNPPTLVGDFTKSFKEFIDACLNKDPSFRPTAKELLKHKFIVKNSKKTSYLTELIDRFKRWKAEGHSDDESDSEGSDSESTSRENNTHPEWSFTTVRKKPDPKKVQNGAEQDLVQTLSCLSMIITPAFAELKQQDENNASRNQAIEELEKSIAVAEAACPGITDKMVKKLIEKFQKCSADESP
Chain of Serine/threonine-protein kinase pim-2 (Q9P1W9 whole entry, looked up): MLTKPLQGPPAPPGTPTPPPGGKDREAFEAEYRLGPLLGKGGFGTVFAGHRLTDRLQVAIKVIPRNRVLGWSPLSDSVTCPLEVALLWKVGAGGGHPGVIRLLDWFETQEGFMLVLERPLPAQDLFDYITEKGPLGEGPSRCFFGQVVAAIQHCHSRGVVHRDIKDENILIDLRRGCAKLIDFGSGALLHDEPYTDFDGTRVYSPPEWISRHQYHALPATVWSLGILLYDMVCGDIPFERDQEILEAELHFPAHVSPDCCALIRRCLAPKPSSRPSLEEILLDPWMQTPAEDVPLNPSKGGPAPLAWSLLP

On to `C[S+]([O-])c1ccc(CSc2nc(-c3ccc(F)cc3)c(-c3ccncc3)[nH]2)cc1` (stereo not given), for which the ΔTm in assay [1] was 0 °C; in [2], -0.1 °C; in assay [3] it was 0 °C; in assay [4], 0.5 °C; in assay [5], -0.4 °C; in [6] it was -0.4 °C. Besides, the shift in melting temperature (ΔTm) in [7] is 1.5 °C; in assay [8], 0.3 °C; in [9], 0.5 °C; in assay [10] it was 0 °C; in assay [11], -2 °C; in assay [12], 0.4 °C. For the same molecule, the ΔTm is 0.2 °C in [13]; 1.1 °C in assay [14]; 0.8 °C in assay [15]; 0.4 °C in assay [16]; 0 °C in assay [17]; 0.1 °C in assay [18]. Moreover, the ΔTm in assay [19] was 0.1 °C; in assay [20] it was -0.8 °C.
`CC(=O)O/N=C1/C(=C2/C(=O)Nc3cc(Br)ccc32)Nc2ccccc21` [6-BROMOINDIRUBIN-3'-ACETOXIME]: the ΔTm in assay [1] was -1.4 °C; in [2] it was 2.4 °C; in assay [3], 4.6 °C; in assay [4] it was 3.2 °C; in [5], 0.1 °C; in assay [6], 3.1 °C. The ΔTm was 1.1 °C in [7]; 0 °C in [8]; 1.9 °C in assay [9]; 0.3 °C in assay [10]; -0.2 °C in assay [11]; -1.4 °C in assay [12]. Moreover, the ΔTm in assay [13] was determined as 1.7 °C; in assay [14], 2.1 °C; in assay [15], 0 °C; in [16], 0.9 °C; in assay [17], 0.1 °C; in assay [18] it was 3.5 °C. The figures for the ΔTm in assay [19] and in [20] were 0.4 °C and 0.7 °C, respectively.
For `O=C1NC(=O)C(c2cn(CCCn3ccnc3)c3ccccc23)=C1Nc1ccccc1`, the ΔTm in [1] was 0.2 °C; in assay [2] it was 0.9 °C; in [3], -0.7 °C; in assay [4], 0.4 °C; in assay [5] it was 1.5 °C; in assay [6], 0.4 °C. Besides, the ΔTm in assay [7] was 0 °C; in assay [8] it was -0.1 °C; in [9] it was 1.2 °C; in assay [10] it was -0.4 °C; in [11] it was 3.1 °C; in assay [12], 1.5 °C. Also, the ΔTm came to 6.1 °C in assay [13]; 4.8 °C in [14]; 2 °C in [15]; 0.7 °C in assay [16]; 3.1 °C in [17]; 0.8 °C in [18]. The ΔTm is -0.7 °C in [19] and 1.6 °C in assay [20].
On to `COc1ccc(CNc2nc(N(CCO)CCO)nc3c2ncn3C(C)C)cc1`, for which the ΔTm in assay [1] is 0.3 °C; in assay [2] it was 0.3 °C; in assay [3], 0.4 °C; in [4], 1.6 °C; in assay [5], 0.9 °C; in assay [6] it was 0.1 °C. The ΔTm in assay [7] was 1.2 °C; in [8] it was 0.2 °C; in assay [9], 1 °C; in assay [10], 1.2 °C; in [11] it was -1 °C; in assay [12] it was 0.3 °C. Also, the ΔTm in [13] came to 0.3 °C; in [14], 0.3 °C; in [15], 0.7 °C; in assay [16], 0.4 °C; in assay [17], 1 °C; in assay [18], 0.4 °C. Also, the ΔTm was determined as 0.5 °C in assay [19] and 0.4 °C in [20].
For the molecule `NC1=N/C(=C2/CCNC(=O)c3[nH]ccc32)C(=O)N1` [DEBROMOHYMENIALDISINE], the ΔTm stood at 0 °C in assay [1]; 0.3 °C in assay [2]; 0 °C in assay [3]; 0.7 °C in assay [4]; 1.7 °C in [5]; 0.4 °C in assay [6]. In addition, the ΔTm in assay [7] is -0.4 °C; in assay [8], 0.6 °C; in assay [9], 1.1 °C; in assay [10], 0.1 °C; in assay [11] it was 0.7 °C; in assay [12], 2.5 °C. In addition, the thermal shift (ΔTm) in assay [13] was -0.3 °C; in assay [14], 0.6 °C; in [15], 1.7 °C; in assay [16] it was 0.7 °C; in [17], 0.7 °C; in [18], 2.6 °C. The figures for the ΔTm in [19] and in assay [20] were 1.6 °C and 0.5 °C, respectively.
In the case of `COc1ccc2c(c[n+](C)c3c4cc5c(cc4ccc23)OCO5)c1OC` [CHELERYTHRINE CHLORIDE], the ΔTm in assay [1] was -5.3 °C; in assay [2], -0.2 °C; in assay [3] it was -0.6 °C; in [4], 0.2 °C; in [5] it was -3.9 °C; in assay [6] it was -0.9 °C. The ΔTm is 0.6 °C in assay [7]; -0.5 °C in [8]; -1.2 °C in assay [9]; -3.3 °C in [10]; -4.4 °C in [11]; -3.1 °C in assay [12]. The ΔTm was -0.4 °C in [13]; -2.4 °C in assay [14]; -1.1 °C in assay [15]; 0.1 °C in [16]; -4.2 °C in assay [17]; -0.4 °C in [18]. Moreover, the ΔTm is -1.3 °C in [19] and -0.6 °C in [20].

Usually ΔTm stands for the shift of the melting midpoint relative to a reference.
